According to ChEMBL document CHEMBL5465560, “Selectivity Literature for EUbOPEN Chemogenomic Library” (2024):

Experiments:
[1] = molecular target: T1, Serine/threonine-protein kinase PAK 4 (Homo sapiens, UniProt O96013); test: Selectivity interaction (Kinase panel (DSF assay)) EUB0001558a PAK4
[2] = molecular target: Dual specificity testis-specific protein kinase 1 (Homo sapiens) (UniProt Q15569); test: Selectivity interaction (KinomeScan (DiscoverX)) EUB0000229b TESK1; conditions: at 10 µM
[3] = molecular target: Casein kinase I isoform gamma-1 (Homo sapiens) (UniProt Q9HCP0); test: Selectivity interaction (KinomeScan (DiscoverX)) EUB0000092b CSNK1G1; conditions: at 10 µM
[4] = molecular target: T1, Serine/threonine-protein kinase PAK 4; test: Selectivity interaction (KinomeScan (DiscoverX)) EUB0000655a PAK4; conditions: at 10 µM
[5] = molecular target: T2, Aurora kinase C (Homo sapiens) (UniProt Q9UQB9); test: Selectivity interaction (KinomeScan (DiscoverX)) EUB0000655a AURKC; conditions: at 10 µM
T2 sequence (whole entry): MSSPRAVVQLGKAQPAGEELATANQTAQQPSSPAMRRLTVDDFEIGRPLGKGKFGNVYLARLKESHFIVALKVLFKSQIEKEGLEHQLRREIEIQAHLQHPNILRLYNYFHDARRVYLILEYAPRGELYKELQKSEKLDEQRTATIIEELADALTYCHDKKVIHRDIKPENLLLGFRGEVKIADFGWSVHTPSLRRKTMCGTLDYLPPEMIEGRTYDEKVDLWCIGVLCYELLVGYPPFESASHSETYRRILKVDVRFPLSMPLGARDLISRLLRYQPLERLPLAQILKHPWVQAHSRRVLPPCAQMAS

[6] = molecular target: T3, Ephrin type-A receptor 1 (Homo sapiens) (UniProt P21709); test: Selectivity interaction (KinomeScan (DiscoverX)) EUB0000595a EPHA1; conditions: at 10 µM
T3 sequence (whole entry): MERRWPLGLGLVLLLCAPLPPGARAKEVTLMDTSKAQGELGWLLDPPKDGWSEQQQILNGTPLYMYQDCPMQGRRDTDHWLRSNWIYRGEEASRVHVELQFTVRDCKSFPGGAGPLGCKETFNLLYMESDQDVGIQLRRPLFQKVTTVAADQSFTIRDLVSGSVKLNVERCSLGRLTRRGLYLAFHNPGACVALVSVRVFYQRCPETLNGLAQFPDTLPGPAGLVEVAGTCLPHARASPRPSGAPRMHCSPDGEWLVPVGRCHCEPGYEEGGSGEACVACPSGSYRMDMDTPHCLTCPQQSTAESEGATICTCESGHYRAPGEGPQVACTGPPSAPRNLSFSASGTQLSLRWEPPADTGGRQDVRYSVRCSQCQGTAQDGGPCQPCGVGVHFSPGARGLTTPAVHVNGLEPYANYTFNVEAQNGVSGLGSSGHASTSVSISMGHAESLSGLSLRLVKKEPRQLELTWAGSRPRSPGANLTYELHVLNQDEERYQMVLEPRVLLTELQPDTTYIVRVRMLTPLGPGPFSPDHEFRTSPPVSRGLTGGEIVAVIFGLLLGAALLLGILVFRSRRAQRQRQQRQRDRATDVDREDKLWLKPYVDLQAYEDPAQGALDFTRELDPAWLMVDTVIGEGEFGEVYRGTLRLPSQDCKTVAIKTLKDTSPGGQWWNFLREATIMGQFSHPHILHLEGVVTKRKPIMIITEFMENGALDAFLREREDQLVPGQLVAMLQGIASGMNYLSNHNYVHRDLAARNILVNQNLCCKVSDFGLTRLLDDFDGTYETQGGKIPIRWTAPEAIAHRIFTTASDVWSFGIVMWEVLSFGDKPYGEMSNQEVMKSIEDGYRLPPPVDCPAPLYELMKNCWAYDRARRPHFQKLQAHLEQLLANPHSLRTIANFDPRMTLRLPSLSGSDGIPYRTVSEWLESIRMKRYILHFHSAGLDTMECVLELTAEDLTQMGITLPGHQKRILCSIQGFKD

[7] = molecular target: Protein kinase C theta type (Homo sapiens, UniProt Q04759); test: Selectivity interaction (KinomeScan (DiscoverX)) EUB0000045b PRKCQ
[8] = molecular target: T4, Serine/threonine-protein kinase BRSK1 (Homo sapiens) (UniProt Q8TDC3); test: Selectivity interaction (KinomeScan (DiscoverX)) EUB0000618a BRSK1; conditions: at 10 µM
T4 sequence (whole entry): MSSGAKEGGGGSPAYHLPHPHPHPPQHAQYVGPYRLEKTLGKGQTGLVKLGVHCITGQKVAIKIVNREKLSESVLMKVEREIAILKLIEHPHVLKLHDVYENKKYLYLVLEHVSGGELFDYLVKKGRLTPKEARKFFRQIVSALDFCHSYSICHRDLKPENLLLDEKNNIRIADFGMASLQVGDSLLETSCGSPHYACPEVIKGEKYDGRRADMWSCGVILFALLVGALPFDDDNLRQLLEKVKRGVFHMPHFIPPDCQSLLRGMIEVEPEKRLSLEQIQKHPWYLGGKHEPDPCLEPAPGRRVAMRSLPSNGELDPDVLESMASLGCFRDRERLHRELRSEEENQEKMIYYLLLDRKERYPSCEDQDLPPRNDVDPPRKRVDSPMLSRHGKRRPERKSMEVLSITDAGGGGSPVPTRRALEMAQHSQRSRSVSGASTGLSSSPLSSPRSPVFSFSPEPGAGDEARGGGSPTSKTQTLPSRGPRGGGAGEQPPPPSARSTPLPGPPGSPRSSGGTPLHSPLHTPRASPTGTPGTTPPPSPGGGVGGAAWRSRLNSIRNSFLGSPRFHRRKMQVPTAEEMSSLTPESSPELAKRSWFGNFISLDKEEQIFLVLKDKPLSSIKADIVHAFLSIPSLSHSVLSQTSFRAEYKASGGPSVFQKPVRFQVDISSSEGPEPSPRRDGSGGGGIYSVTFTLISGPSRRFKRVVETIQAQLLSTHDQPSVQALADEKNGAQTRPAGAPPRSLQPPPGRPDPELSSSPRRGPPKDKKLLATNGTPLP

[9] = molecular target: T5, Dual specificity mitogen-activated protein kinase kinase 7 (Homo sapiens) (UniProt O14733); test: Selectivity interaction (Ambit KINOMEscan and KiNATiv profiling in Jurkat cells) EUB0000090b MAP2K7; assay type: cell-based; conditions: at 1 µM
T5 sequence (whole entry): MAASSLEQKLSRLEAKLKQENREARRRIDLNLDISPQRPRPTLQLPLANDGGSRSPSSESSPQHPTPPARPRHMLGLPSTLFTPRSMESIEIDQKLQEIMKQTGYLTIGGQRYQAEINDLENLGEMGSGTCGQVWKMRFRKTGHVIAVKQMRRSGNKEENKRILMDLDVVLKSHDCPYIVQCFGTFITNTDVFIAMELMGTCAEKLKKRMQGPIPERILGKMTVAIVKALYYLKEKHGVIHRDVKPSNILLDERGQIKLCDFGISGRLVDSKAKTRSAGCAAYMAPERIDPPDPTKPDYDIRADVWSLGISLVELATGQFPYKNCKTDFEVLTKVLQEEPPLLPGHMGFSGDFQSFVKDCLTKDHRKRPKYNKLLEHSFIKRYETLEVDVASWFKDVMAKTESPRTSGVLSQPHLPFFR

Chain of Protein kinase C theta type (Q04759 whole entry, looked up): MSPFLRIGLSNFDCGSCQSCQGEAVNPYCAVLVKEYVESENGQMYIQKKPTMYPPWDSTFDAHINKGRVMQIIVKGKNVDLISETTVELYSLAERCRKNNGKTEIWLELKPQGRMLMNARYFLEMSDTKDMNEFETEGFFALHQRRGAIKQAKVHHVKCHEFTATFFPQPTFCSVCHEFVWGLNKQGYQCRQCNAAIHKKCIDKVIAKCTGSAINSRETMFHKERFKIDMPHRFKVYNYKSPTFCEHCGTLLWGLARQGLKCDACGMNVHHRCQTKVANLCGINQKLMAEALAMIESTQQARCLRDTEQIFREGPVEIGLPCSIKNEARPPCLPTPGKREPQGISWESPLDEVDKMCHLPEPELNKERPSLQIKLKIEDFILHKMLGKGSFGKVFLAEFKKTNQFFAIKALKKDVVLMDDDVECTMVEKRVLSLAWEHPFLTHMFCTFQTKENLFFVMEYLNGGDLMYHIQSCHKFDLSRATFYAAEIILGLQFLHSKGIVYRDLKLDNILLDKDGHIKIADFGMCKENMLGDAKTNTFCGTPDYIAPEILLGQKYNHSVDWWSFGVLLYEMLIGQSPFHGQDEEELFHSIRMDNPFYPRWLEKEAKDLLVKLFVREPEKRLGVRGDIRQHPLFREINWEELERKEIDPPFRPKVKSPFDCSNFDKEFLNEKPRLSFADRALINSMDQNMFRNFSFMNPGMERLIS
T1 sequence (O96013 whole entry, looked up): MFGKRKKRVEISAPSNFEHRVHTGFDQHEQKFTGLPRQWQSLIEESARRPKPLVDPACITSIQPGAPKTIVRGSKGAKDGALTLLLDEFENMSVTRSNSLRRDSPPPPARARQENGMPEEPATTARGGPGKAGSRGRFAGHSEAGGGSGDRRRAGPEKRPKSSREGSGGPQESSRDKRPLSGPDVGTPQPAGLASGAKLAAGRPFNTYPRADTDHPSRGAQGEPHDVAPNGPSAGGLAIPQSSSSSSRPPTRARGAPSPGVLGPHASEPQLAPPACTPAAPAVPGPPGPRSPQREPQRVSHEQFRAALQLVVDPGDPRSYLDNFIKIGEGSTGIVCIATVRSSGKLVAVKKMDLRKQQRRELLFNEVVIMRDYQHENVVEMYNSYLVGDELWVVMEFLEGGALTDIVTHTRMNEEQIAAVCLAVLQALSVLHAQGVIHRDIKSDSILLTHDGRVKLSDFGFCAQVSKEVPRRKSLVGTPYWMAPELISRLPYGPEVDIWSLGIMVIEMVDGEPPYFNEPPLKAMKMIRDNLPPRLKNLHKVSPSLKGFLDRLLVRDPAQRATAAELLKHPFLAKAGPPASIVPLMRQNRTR
Chain of Dual specificity testis-specific protein kinase 1 (Homo sapiens) (Q15569 whole entry, looked up, canonical isoform): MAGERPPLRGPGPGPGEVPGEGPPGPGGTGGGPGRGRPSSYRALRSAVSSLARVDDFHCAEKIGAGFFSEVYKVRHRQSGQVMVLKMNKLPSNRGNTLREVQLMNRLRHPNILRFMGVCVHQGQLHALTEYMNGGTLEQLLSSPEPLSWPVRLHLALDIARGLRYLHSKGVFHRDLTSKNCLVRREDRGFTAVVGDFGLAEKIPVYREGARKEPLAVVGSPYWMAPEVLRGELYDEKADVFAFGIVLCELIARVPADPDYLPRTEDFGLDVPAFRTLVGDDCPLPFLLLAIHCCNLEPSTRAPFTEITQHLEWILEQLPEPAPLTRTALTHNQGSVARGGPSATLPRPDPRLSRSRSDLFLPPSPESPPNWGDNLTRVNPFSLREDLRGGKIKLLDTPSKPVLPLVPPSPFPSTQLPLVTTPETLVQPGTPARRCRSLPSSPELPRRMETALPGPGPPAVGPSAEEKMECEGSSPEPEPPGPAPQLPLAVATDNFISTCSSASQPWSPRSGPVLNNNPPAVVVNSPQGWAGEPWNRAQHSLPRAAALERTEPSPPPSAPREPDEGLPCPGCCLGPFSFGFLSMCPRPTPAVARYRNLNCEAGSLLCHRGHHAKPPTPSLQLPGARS
Chain of Casein kinase I isoform gamma-1 (Homo sapiens) (Q9HCP0 whole entry, looked up, canonical isoform): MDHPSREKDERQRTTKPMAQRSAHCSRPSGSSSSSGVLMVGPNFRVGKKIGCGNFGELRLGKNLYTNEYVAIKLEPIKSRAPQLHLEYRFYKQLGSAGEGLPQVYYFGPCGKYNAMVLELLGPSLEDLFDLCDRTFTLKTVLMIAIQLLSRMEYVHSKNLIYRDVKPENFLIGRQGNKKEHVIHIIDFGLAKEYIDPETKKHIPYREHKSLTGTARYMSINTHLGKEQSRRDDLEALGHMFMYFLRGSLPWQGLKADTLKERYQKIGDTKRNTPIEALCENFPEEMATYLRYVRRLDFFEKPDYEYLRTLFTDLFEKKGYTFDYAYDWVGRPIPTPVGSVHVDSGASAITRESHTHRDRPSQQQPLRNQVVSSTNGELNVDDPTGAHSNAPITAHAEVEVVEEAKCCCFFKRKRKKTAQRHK

Question: How did the dTM [1] turn out when `CC(C)(O)[C@H](F)CN1Cc2cc(NC(=O)c3cnn4cccnc34)c(N3CCOCC3)cc2C1=O` was run?
Answer: 1.1 K

Question: Which % binding [2] does the source give for `COc1cc(N(C)c2ccnc3ccc(C(F)(F)F)cc23)cc(OC)c1OC` here?
Answer: 90%

Question: Which % of control [3] does the source give for `CCC(=O)N1CCN(c2ccc(-n3c(=O)ccc4cnc5ccc(-c6cnc7ccccc7c6)cc5c43)cc2C(F)(F)F)CC1` here?
Answer: 100%

Question: With `CN(C)CCOc1ccc(-c2nc(-c3ccncc3)c(-c3ccc4c(c3)CC/C4=N\O)[nH]2)cc1` as the molecule, how does the % of control [4] read?
Answer: 92%

Question: And the % of control [5]?
Answer: 100%

Question: Which % of control [6] does the source give for `COCC(=O)NC/C=C/c1ccc2ncnc(Nc3ccc(Oc4ccc(C)nc4)c(C)c3)c2c1` [CP-724714] here?
Answer: 88%

Question: Which results are given for `C=CC(=O)Nc1cc(-n2c(=O)ccc3cnc4ccc(-c5ccc(NS(C)(=O)=O)cc5)cc4c32)ccc1C`?
Answer: % of control ([7]; at 1 µM): 100%; % of control ([7]; at 10 µM): 76%

Question: `O[C@H]1CC[C@H](Nc2ncc3nc(Nc4c(F)cc(F)cc4F)n([C@H]4CCOC4)c3n2)CC1` was tested. Which % of control [8] did it give?
Answer: 86%

Question: `CN(C)C/C=C/C(=O)Nc1ccc(C(=O)N2CCCC(Nc3ncc(Cl)c(-c4c[nH]c5ccccc45)n3)C2)cc1` (stereo not given) was tested. Which % of control [9] did it give?
Answer: 100%
